Measured values published in PubChem BioAssay (NCI).
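Test compounds were applied to cells in 96-well plates for 48 hours at 5 doses. TGI marks complete inhibition of growth.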

Assays:
Test in all cases: NCI-60 cell line screen, 48 h
MDA-MB-435 = test system: MDA-MB-435
MOLT-4 leukemia = test system: MOLT-4 leukemia
NCI-H23 lung = test system: NCI-H23 lung
OVCAR-5 ovarian = test system: OVCAR-5 ovarian
COLO 205 colon = test system: COLO 205 colon
ACHN renal = test system: ACHN renal
HOP-62 NSCLC = test system: HOP-62 NSCLC
SNB-75 CNS = test system: SNB-75 CNS
HL-60(TB) leukemia = test system: HL-60(TB) leukemia
OVCAR-3 ovarian = test system: OVCAR-3 ovarian
A549 NSCLC = test system: A549 NSCLC
KM12 colon = test system: KM12 colon
SK-OV-3 ovarian = test system: SK-OV-3 ovarian
LOX IMVI melanoma = test system: LOX IMVI melanoma
DU-145 prostate = test system: DU-145 prostate
NCI-H460 lung = test system: NCI-H460 lung
CAKI-1 renal = test system: CAKI-1 renal
OVCAR-8 ovarian = test system: OVCAR-8 ovarian
UACC-62 melanoma = test system: UACC-62 melanoma
SF-268 CNS = test system: SF-268 CNS
SW-620 colon = test system: SW-620 colon
786-0 renal = test system: 786-0 renal
NCI-H522 lung = test system: NCI-H522 lung
TK-10 renal = test system: TK-10 renal
K-562 leukemia = test system: K-562 leukemia
MDA-MB-231 breast = test system: MDA-MB-231 breast
SK-MEL-2 melanoma = test system: SK-MEL-2 melanoma
MCF7 breast = test system: MCF7 breast
SR leukemia = test system: SR leukemia
A498 renal = test system: A498 renal
MDA-N = test system: MDA-N
M14 melanoma = test system: M14 melanoma
NCI/ADR-RES ovarian = test system: NCI/ADR-RES ovarian
UACC-257 melanoma = test system: UACC-257 melanoma
T-47D breast = test system: T-47D breast
SNB-19 CNS = test system: SNB-19 CNS
SK-MEL-5 melanoma = test system: SK-MEL-5 melanoma
U251 CNS = test system: U251 CNS
EKVX NSCLC = test system: EKVX NSCLC
HCC-2998 colon = test system: HCC-2998 colon
SN12C renal = test system: SN12C renal
RPMI-8226 leukemia = test system: RPMI-8226 leukemia
NCI-H226 lung = test system: NCI-H226 lung
MALME-3M melanoma = test system: MALME-3M melanoma
IGROV1 ovarian = test system: IGROV1 ovarian
HOP-92 NSCLC = test system: HOP-92 NSCLC
SF-539 CNS = test system: SF-539 CNS
HS 578T breast = test system: HS 578T breast
PC-3 prostate = test system: PC-3 prostate
HCT-15 colon = test system: HCT-15 colon
HCT-116 colon = test system: HCT-116 colon
CCRF-CEM leukemia = test system: CCRF-CEM leukemia
OVCAR-4 ovarian = test system: OVCAR-4 ovarian
RXF 393 renal = test system: RXF 393 renal
UO-31 renal = test system: UO-31 renal
SF-295 CNS = test system: SF-295 CNS
SK-MEL-28 melanoma = test system: SK-MEL-28 melanoma
BT-549 breast = test system: BT-549 breast
HT29 colon = test system: HT29 colon

Molecule `Cn1c2c3ccc(Cl)cc3nc-2c(Cl)c2ccccc21` has a TGI (MDA-MB-435) of 38.2 µM, a TGI (MOLT-4 leukemia) greater than 100 µM and a TGI (NCI-H23 lung) of 36.1 µM. For the same molecule, the TGI (OVCAR-5 ovarian) was 38.6 µM, the TGI (COLO 205 colon) was 40.1 µM and the TGI (ACHN renal) was 32 µM. For the same molecule, the TGI (HOP-62 NSCLC) was 45.3 µM, the TGI (SNB-75 CNS) was 55.1 µM and the TGI (HL-60(TB) leukemia) was greater than 100 µM. It also gave a TGI (OVCAR-3 ovarian) of 29.7 µM, a TGI (A549 NSCLC) greater than 100 µM and a TGI (KM12 colon) of 53.9 µM. The TGI (SK-OV-3 ovarian) was greater than 100 µM, the TGI (LOX IMVI melanoma) was 72.3 µM and the TGI (DU-145 prostate) was 33.4 µM. It also gave a TGI (NCI-H460 lung) of 43.8 µM, a TGI (CAKI-1 renal) of 32.1 µM and a TGI (OVCAR-8 ovarian) greater than 100 µM. The TGI (UACC-62 melanoma) was 50.8 µM, the TGI (SF-268 CNS) was 36.3 µM and the TGI (SW-620 colon) was 63.1 µM. The TGI (786-0 renal) was 33.9 µM, the TGI (NCI-H522 lung) was 33.6 µM and the TGI (TK-10 renal) was 32.5 µM. It also gave a TGI (K-562 leukemia) greater than 100 µM, a TGI (MDA-MB-231 breast) of 97.8 µM and a TGI (SK-MEL-2 melanoma) of 48.2 µM. The TGI (MCF7 breast) was greater than 100 µM, the TGI (SR leukemia) was greater than 100 µM and the TGI (A498 renal) was 45.1 µM. For the same molecule, the TGI (MDA-N) was 46.2 µM, the TGI (M14 melanoma) was 61.3 µM and the TGI (NCI/ADR-RES ovarian) was 69.2 µM. The TGI (UACC-257 melanoma) was 37.4 µM, the TGI (T-47D breast) was greater than 100 µM and the TGI (SNB-19 CNS) was greater than 100 µM. For the same molecule, the TGI (SK-MEL-5 melanoma) was 42.7 µM, the TGI (U251 CNS) was greater than 100 µM and the TGI (EKVX NSCLC) was 90.2 µM. For the same molecule, the TGI (HCC-2998 colon) was 20.5 µM, the TGI (SN12C renal) was 34.5 µM and the TGI (RPMI-8226 leukemia) was greater than 100 µM. The TGI (NCI-H226 lung) was 62.5 µM, the TGI (MALME-3M melanoma) was 34 µM and the TGI (IGROV1 ovarian) was 42 µM. The TGI (HOP-92 NSCLC) was 37.1 µM, the TGI (SF-539 CNS) was 49.2 µM and the TGI (HS 578T breast) was greater than 100 µM. For the same molecule, the TGI (PC-3 prostate) was 38.1 µM, the TGI (HCT-15 colon) was 47.1 µM and the TGI (HCT-116 colon) was 4.99 µM. The TGI (CCRF-CEM leukemia) was greater than 100 µM, the TGI (OVCAR-4 ovarian) was 35.5 µM and the TGI (RXF 393 renal) was 36.9 µM. It also gave a TGI (UO-31 renal) of 32.6 µM, a TGI (SF-295 CNS) of 36.6 µM and a TGI (SK-MEL-28 melanoma) of 43.9 µM. The TGI (BT-549 breast) was 50.1 µM and the TGI (HT29 colon) was 49.9 µM.
`c1ccc(C(=NNc2cnc3ccccc3n2)c2ccccn2)cc1` gave a TGI (MDA-MB-435) greater than 47.6 µM, a TGI (MOLT-4 leukemia) of 11.4 µM and a TGI (NCI-H23 lung) of 14.1 µM. It also gave a TGI (OVCAR-5 ovarian) of 27.1 µM, a TGI (COLO 205 colon) of 24.6 µM and a TGI (ACHN renal) of 12.6 µM. The TGI (HOP-62 NSCLC) was 20 µM, the TGI (SNB-75 CNS) was 31.4 µM and the TGI (HL-60(TB) leukemia) was 12.3 µM. It also gave a TGI (OVCAR-3 ovarian) of 12.2 µM, a TGI (A549 NSCLC) of 15 µM and a TGI (KM12 colon) of 20.5 µM. For the same molecule, the TGI (SK-OV-3 ovarian) was greater than 44.6 µM, the TGI (DU-145 prostate) was greater than 61.3 µM and the TGI (NCI-H460 lung) was 10.5 µM. It also gave a TGI (CAKI-1 renal) of 12.2 µM, a TGI (OVCAR-8 ovarian) of 2.68 µM and a TGI (UACC-62 melanoma) of 20.2 µM. It also gave a TGI (SF-268 CNS) of 13.6 µM, a TGI (SW-620 colon) of 22.5 µM and a TGI (786-0 renal) of 15.4 µM. For the same molecule, the TGI (NCI-H522 lung) was 12.3 µM, the TGI (K-562 leukemia) was greater than 67.5 µM and the TGI (MDA-MB-231 breast) was 26.9 µM. It also gave a TGI (SK-MEL-2 melanoma) of 26.2 µM, a TGI (MCF7 breast) of 12.2 µM and a TGI (SR leukemia) of 10.9 µM. For the same molecule, the TGI (A498 renal) was greater than 100 µM, the TGI (MDA-N) was greater than 52.2 µM and the TGI (M14 melanoma) was 10.9 µM. The TGI (NCI/ADR-RES ovarian) was 2.15 µM, the TGI (UACC-257 melanoma) was 17.5 µM and the TGI (T-47D breast) was 33.5 µM. For the same molecule, the TGI (SNB-19 CNS) was greater than 39.6 µM, the TGI (SK-MEL-5 melanoma) was 16 µM and the TGI (U251 CNS) was 23.8 µM. It also gave a TGI (EKVX NSCLC) of 13.4 µM, a TGI (HCC-2998 colon) of 19.9 µM and a TGI (SN12C renal) of 24 µM. The TGI (RPMI-8226 leukemia) was greater than 36.8 µM, the TGI (NCI-H226 lung) was 40.6 µM and the TGI (MALME-3M melanoma) was 23 µM. It also gave a TGI (IGROV1 ovarian) of 11.5 µM, a TGI (HOP-92 NSCLC) of 28.3 µM and a TGI (SF-539 CNS) of 17.4 µM. The TGI (HS 578T breast) was 37.9 µM, the TGI (PC-3 prostate) was 19.2 µM and the TGI (HCT-15 colon) was 14.5 µM. The TGI (HCT-116 colon) was greater than 36.6 µM, the TGI (CCRF-CEM leukemia) was 28.3 µM and the TGI (OVCAR-4 ovarian) was 28 µM. It also gave a TGI (RXF 393 renal) of 21.5 µM, a TGI (UO-31 renal) of 3.25 µM and a TGI (SF-295 CNS) of 12.8 µM. The TGI (SK-MEL-28 melanoma) was 55.5 µM, the TGI (BT-549 breast) was 24.5 µM and the TGI (HT29 colon) was 17.7 µM.
With `Cc1ccc(NC2=N/C(=C/c3ccccc3)C(Cl)=N2)cc1` the TGI (MDA-MB-435) was greater than 100 µM, the TGI (MOLT-4 leukemia) was greater than 100 µM and the TGI (NCI-H23 lung) was greater than 100 µM. The TGI (OVCAR-5 ovarian) was greater than 100 µM, the TGI (COLO 205 colon) was greater than 100 µM and the TGI (ACHN renal) was greater than 100 µM. It also gave a TGI (HOP-62 NSCLC) greater than 100 µM, a TGI (SNB-75 CNS) greater than 100 µM and a TGI (HL-60(TB) leukemia) greater than 63.3 µM. The TGI (OVCAR-3 ovarian) was greater than 100 µM, the TGI (A549 NSCLC) was greater than 100 µM and the TGI (KM12 colon) was greater than 100 µM. It also gave a TGI (SK-OV-3 ovarian) greater than 100 µM, a TGI (LOX IMVI melanoma) greater than 100 µM and a TGI (DU-145 prostate) greater than 100 µM. It also gave a TGI (NCI-H460 lung) greater than 100 µM, a TGI (CAKI-1 renal) greater than 100 µM and a TGI (OVCAR-8 ovarian) greater than 100 µM. The TGI (UACC-62 melanoma) was greater than 100 µM, the TGI (SF-268 CNS) was greater than 100 µM and the TGI (SW-620 colon) was greater than 100 µM. It also gave a TGI (786-0 renal) greater than 100 µM, a TGI (NCI-H522 lung) greater than 100 µM and a TGI (TK-10 renal) greater than 100 µM. For the same molecule, the TGI (K-562 leukemia) was greater than 100 µM, the TGI (MDA-MB-231 breast) was greater than 100 µM and the TGI (SK-MEL-2 melanoma) was greater than 100 µM. For the same molecule, the TGI (MCF7 breast) was greater than 100 µM, the TGI (SR leukemia) was 98.2 µM and the TGI (A498 renal) was greater than 100 µM. It also gave a TGI (MDA-N) greater than 100 µM, a TGI (M14 melanoma) greater than 100 µM and a TGI (NCI/ADR-RES ovarian) greater than 100 µM. It also gave a TGI (UACC-257 melanoma) greater than 100 µM, a TGI (T-47D breast) greater than 100 µM and a TGI (SNB-19 CNS) greater than 100 µM. The TGI (SK-MEL-5 melanoma) was greater than 100 µM, the TGI (U251 CNS) was greater than 100 µM and the TGI (EKVX NSCLC) was greater than 100 µM. It also gave a TGI (HCC-2998 colon) greater than 100 µM, a TGI (SN12C renal) greater than 100 µM and a TGI (RPMI-8226 leukemia) greater than 100 µM. The TGI (NCI-H226 lung) was greater than 100 µM, the TGI (MALME-3M melanoma) was greater than 100 µM and the TGI (IGROV1 ovarian) was greater than 100 µM. For the same molecule, the TGI (HOP-92 NSCLC) was greater than 100 µM, the TGI (SF-539 CNS) was greater than 100 µM and the TGI (HS 578T breast) was greater than 100 µM. The TGI (PC-3 prostate) was greater than 100 µM, the TGI (HCT-15 colon) was greater than 100 µM and the TGI (HCT-116 colon) was greater than 100 µM. The TGI (CCRF-CEM leukemia) was greater than 100 µM, the TGI (OVCAR-4 ovarian) was greater than 100 µM and the TGI (RXF 393 renal) was greater than 100 µM. It also gave a TGI (UO-31 renal) greater than 100 µM, a TGI (SF-295 CNS) greater than 100 µM and a TGI (SK-MEL-28 melanoma) greater than 100 µM. The TGI (BT-549 breast) was greater than 100 µM and the TGI (HT29 colon) was greater than 100 µM.
